≈ marks a conversion by molar mass, not a printed value.
Experiments:
Assay in all cases: ≥ marks a high value that may be exact or a test limit, other limits are often not marked, values filed in µg/mL are converted to µM
Acinetobacter baumannii = tested on: Acinetobacter baumannii
[1] = tested on: Escherichia coli ATCC 25922
Escherichia coli K88 = tested on: Escherichia coli K88
Escherichia coli K99 = tested on: Escherichia coli K99
Escherichia coli UB1005 = tested on: Escherichia coli UB1005
Escherichia coli = tested on: Escherichia coli
Klebsiella pneumoniae = tested on: Klebsiella pneumoniae
[2] = tested on: Pseudomonas aeruginosa ATCC 27853
[3] = tested on: Pseudomonas aeruginosa CICC 21625
[4] = tested on: Pseudomonas aeruginosa CICC 21630
[5] = tested on: Pseudomonas aeruginosa PAO1
Pseudomonas aeruginosa = tested on: Pseudomonas aeruginosa
[6] = tested on: Salmonella enterica subsp. enterica serovar Pullorum C79-13
[7] = tested on: Salmonella enterica subsp. enterica serovar Typhimurium ATCC 14028
[8] = tested on: Salmonella enterica subsp. enterica serovar Typhimurium C77-31
Escherichia coli BW25113 = tested on: Escherichia coli BW25113
[9] = tested on: Candida albicans NCPF 1467
[10] = tested on: Escherichia coli NCTC 10418
[11] = tested on: Staphylococcus aureus NCTC 10788
Candida albicans = tested on: Candida albicans
[12] = tested on: Enterococcus faecalis ATCC 29212
[13] = tested on: Pseudomonas aeruginosa H103
[14] = tested on: Salmonella enterica serovar Typhimurium
[15] = tested on: Staphylococcus aureus ATCC 25923
[16] = tested on: Staphylococcus epidermidis

| Compound | MIC (Escherichia coli UB1005) | MIC (Candida albicans) | MIC [12] | MIC [13] | MIC [14] | MIC [15] | MIC [16] | other results |
| --- | --- | --- | --- | --- | --- | --- | --- | --- |
| CC(C)C[C@H](NC(=O)[C@@H]1CCCN1C(=O)[C@H](CCCCN)NC(=O)[C@H](CC(C)C)NC(=O)[C@H](CC(C)C)NC(=O)[C@@H]1CCCN1C(=O)[C@H](CCCCN)NC(=O)[C@H](CC(C)C)NC(=O)[C@H](CC(C)C)NC(=O)[C@@H]1CCCN1C(=O)[C@H](CCCCN)NC(=O)[C@H](CC(C)C)NC(=O)[C@H](CC(C)C)NC(=O)[C@@H]1CCCN1C(=O)[C@H](CCCCN)NC(=O)[C@@H](N)CC(C)C)C(N)=O [LKPLLKPLLKPLLKPL] | 16 µM (≈ 29.2 µg/mL) |  |  |  |  |  |  | MIC (Acinetobacter baumannii): 4 µM (≈ 7.29 µg/mL); MIC [1]: 16 µM (≈ 29.2 µg/mL); MIC (Escherichia coli K88): 16 µM (≈ 29.2 µg/mL); MIC (Escherichia coli K99): 16 µM (≈ 29.2 µg/mL); MIC (Escherichia coli): 32 µM (≈ 58.4 µg/mL); MIC (Klebsiella pneumoniae): > 64 µM; MIC [2]: > 64 µM; MIC [3]: ≥ 64 µM; MIC [4]: ≥ 64 µM; MIC [5]: > 64 µM; MIC (Pseudomonas aeruginosa): > 64 µM; MIC [6]: ≥ 32 µM; MIC [7]: > 64 µM; MIC [8]: ≥ 64 µM |
| CC[C@H](C)[C@H](NC(=O)[C@@H]1CCCN1C(=O)[C@H](CCCN=C(N)N)NC(=O)[C@H](CCCN=C(N)N)NC(=O)[C@H](CCCN=C(N)N)NC(=O)[C@@H](N)CCCN=C(N)N)C(=O)N[C@@H](CCCN=C(N)N)C(=O)N[C@@H](CCCN=C(N)N)C(=O)N[C@@H](CCCN=C(N)N)C(=O)N1CCC[C@H]1C(=O)N[C@H](C(=O)N[C@@H](CCCN=C(N)N)C(=O)N1CCC[C@H]1C(=O)N1CCC[C@H]1C(=O)N[C@@H](Cc1ccccc1)C(=O)N[C@@H](Cc1ccc(O)cc1)C(=O)N[C@@H](CCCN=C(N)N)C(=O)O)[C@@H](C)CC [RRRRPIRRRPIRPPFYR] |  |  |  |  |  |  |  | MIC (Escherichia coli BW25113): 16 µM (≈ 37.6 µg/mL) |
| CC[C@H](C)[C@H](NC(=O)[C@H](C)NC(=O)[C@H](CCCCN)NC(=O)[C@@H]1CCCN1C(=O)[C@@H](NC(=O)[C@H](CC(C)C)NC(=O)[C@H](CCCCN)NC(=O)[C@H](Cc1ccccc1)NC(=O)[C@H](CC(C)C)NC(=O)[C@@H](N)Cc1ccccc1)[C@@H](C)CC)C(=O)N[C@@H](CCCCN)C(=O)NCC(=O)N[C@@H](CC(C)C)C(=O)N[C@H](C(=O)N[C@@H](CCCCN)C(=O)N[C@@H](C)C(=O)N[C@H](C(=O)N[C@@H](CCCN=C(N)N)C(=O)N[C@@H](CCCCN)C(N)=O)[C@@H](C)CC)C(C)C [FLFKLIPKAIKGLVKAIRK] |  |  |  |  |  |  |  | MIC [9]: 1.83 µM (≈ 4 µg/mL); MIC [10]: 7.33 µM (≈ 16 µg/mL); MIC [11]: 1.83 µM (≈ 4 µg/mL) |
| CC[C@H](C)[C@H](NC(=O)[C@H](CCCN=C(N)N)NC(=O)[C@H](CC(C)C)NC(=O)[C@H](CCCN=C(N)N)NC(=O)[C@@H](N)C(C)C)C(=O)N[C@@H](CCCN=C(N)N)C(=O)N[C@H](C(=O)N[C@@H](CCCN=C(N)N)C(=O)N[C@H](C(=O)N[C@H](C(=O)N[C@@H](CCCN=C(N)N)C(=O)N[C@@H](CCCCN)C(=O)O)[C@@H](C)CC)C(C)C)C(C)C [VRLRIRVRVIRK] | 2 µM (≈ 3.13 µg/mL) | 8 µM (≈ 12.5 µg/mL) | 4 µM (≈ 6.26 µg/mL) | 2 µM (≈ 3.13 µg/mL) | 2 µM (≈ 3.13 µg/mL) | 1 µM (≈ 1.56 µg/mL) | 1 µM (≈ 1.56 µg/mL) |  |
| CC[C@H](C)[C@H](NC(=O)[C@@H]1CCCN1C(=O)[C@H](CCCN=C(N)N)NC(=O)[C@H](CCCN=C(N)N)NC(=O)[C@H](Cc1c[nH]c2ccccc12)NC(=O)[C@@H](N)CCCN=C(N)N)C(=O)N[C@@H](CCCN=C(N)N)C(=O)N[C@@H](CCCN=C(N)N)C(=O)N[C@@H](CCCN=C(N)N)C(=O)N1CCC[C@H]1C(=O)N[C@H](C(=O)N[C@@H](CCCN=C(N)N)C(=O)N1CCC[C@H]1C(=O)N1CCC[C@H]1C(=O)N[C@@H](Cc1c[nH]c2ccccc12)C(=O)N[C@@H](Cc1ccc(O)cc1)C(=O)N[C@@H](CCCN=C(N)N)C(=O)O)[C@@H](C)CC [RWRRPIRRRPIRPPWYR] |  |  |  |  |  |  |  | MIC (Escherichia coli BW25113): 8 µM (≈ 19.3 µg/mL) |
| CC[C@H](C)[C@H](NC(=O)[C@H](C)NC(=O)[C@@H]1CCCN1C(=O)[C@H](CC(C)C)NC(=O)[C@@H](N)Cc1ccccc1)C(=O)N[C@@H](C)C(=O)NCC(=O)N[C@H](C(=O)N[C@@H](C)C(=O)N[C@@H](C)C(=O)N[C@@H](CCCCN)C(=O)N[C@@H](Cc1ccccc1)C(=O)N[C@@H](CC(C)C)C(=O)N1CCC[C@H]1C(=O)N[C@@H](CCCCN)C(=O)N[C@H](C(=O)N[C@@H](Cc1ccccc1)C(=O)N[C@H]1CSSC[C@@H](C(=O)O)NC(=O)[C@H](CCCCN)NC(=O)[C@H](CCCCN)NC(=O)[C@H]([C@@H](C)O)NC(=O)[C@H]([C@@H](C)CC)NC(=O)[C@H](C)NC1=O)[C@@H](C)CC)C(C)C [FLPAIAGVAAKFLPKIFCAITKKC] |  |  |  |  |  |  |  | MIC [9]: 3.14 µM (≈ 8 µg/mL); MIC [10]: 25.1 µM (≈ 64 µg/mL); MIC [11]: 6.28 µM (≈ 16 µg/mL) |
| CC[C@H](C)[C@H](NC(=O)[C@H](CCCN=C(N)N)NC(=O)[C@@H](NC(=O)[C@H](Cc1c[nH]c2ccccc12)NC(=O)[C@H](CCCN=C(N)N)NC(=O)[C@H](CCCN=C(N)N)NC(=O)[C@@H](N)CC(C)C)[C@@H](C)CC)C(=O)N[C@@H](CCCN=C(N)N)C(=O)N[C@@H](Cc1c[nH]c2ccccc12)C(=O)O [LRRWIRIRW] | 0.7 µM (≈ 0.948 µg/mL) | 10.7 µM (≈ 14.5 µg/mL) | 5.4 µM (≈ 7.32 µg/mL) | 21.4 µM (≈ 29 µg/mL) | 5.4 µM (≈ 7.32 µg/mL) | 1.3 µM (≈ 1.76 µg/mL) | 0.883 µM (≈ 1.2 µg/mL) |  |
| CC[C@H](C)[C@H](NC(=O)[C@H](CCCCN)NC(=O)[C@H](CCCN=C(N)N)NC(=O)[C@H](Cc1c[nH]c2ccccc12)NC(=O)[C@H](Cc1c[nH]c2ccccc12)NC(=O)[C@H](Cc1c[nH]c2ccccc12)NC(=O)[C@H](CCCCN)NC(=O)[C@H](Cc1c[nH]c2ccccc12)NC(=O)[C@@H](N)CCCCN)C(=O)O [KWKWWWRKI] | 4.6 µM (≈ 6.52 µg/mL) | 4.6 µM (≈ 6.52 µg/mL) | 4.6 µM (≈ 6.52 µg/mL) | 4.6 µM (≈ 6.52 µg/mL) | 4.6 µM (≈ 6.52 µg/mL) | 1.2 µM (≈ 1.7 µg/mL) | 1.2 µM (≈ 1.7 µg/mL) |  |
| CC[C@H](C)[C@H](NC(=O)[C@@H]1CCCN1C(=O)[C@H](Cc1c[nH]c2ccccc12)NC(=O)[C@H](CCCN=C(N)N)NC(=O)[C@H](Cc1ccccc1)NC(=O)[C@@H](N)CCCN=C(N)N)C(=O)N[C@@H](CCCN=C(N)N)C(=O)N[C@@H](CCCN=C(N)N)C(=O)N1CCC[C@H]1C(=O)N1CCC[C@H]1C(=O)N[C@H](C(=O)N[C@@H](CCCN=C(N)N)C(=O)N1CCC[C@H]1C(=O)N1CCC[C@H]1C(=O)N[C@@H](Cc1ccccc1)C(=O)N[C@@H](Cc1ccc(O)cc1)C(=O)N1CCC[C@H]1C(=O)O)[C@@H](C)CC [RFRWPIRRPPIRPPFYP] |  |  |  |  |  |  |  | MIC (Escherichia coli BW25113): 8 µM (≈ 18 µg/mL) |
| CC[C@H](C)[C@H](NC(=O)[C@H](CCCCN)NC(=O)[C@H](CCCCN)NC(=O)[C@@H](NC(=O)[C@H](CC(C)C)NC(=O)[C@H](CCCCN)NC(=O)[C@@H]1CCCN1C(=O)[C@@H](NC(=O)[C@H](CC(C)C)NC(=O)[C@H](CO)NC(=O)[C@H](CC(C)C)NC(=O)[C@@H](N)Cc1ccccc1)[C@@H](C)CC)C(C)C)C(=O)N[C@H](C(=O)N[C@@H](CCCCN)C(=O)N[C@@H](C)C(=O)N[C@@H](Cc1ccccc1)C(=O)N[C@@H](CCCCN)C(=O)O)[C@@H](C)CC [FLSLIPKLVKKIIKAFK] |  |  |  |  |  |  |  | MIC [9]: 2.5 µM (≈ 4.97 µg/mL); MIC [10]: 5 µM (≈ 9.93 µg/mL); MIC [11]: 2.5 µM (≈ 4.97 µg/mL) |
| NCCCC[C@H](NC(=O)[C@H](CCCN=C(N)N)NC(=O)[C@H](Cc1c[nH]c2ccccc12)NC(=O)[C@H](Cc1c[nH]c2ccccc12)NC(=O)[C@H](CCCN=C(N)N)NC(=O)[C@@H](N)CCCCN)C(=O)N[C@@H](Cc1c[nH]c2ccccc12)C(=O)N[C@@H](Cc1c[nH]c2ccccc12)C(=O)N[C@@H](CCCN=C(N)N)C(=O)O [KRWWRKWWR] | 2.7 µM (≈ 4.02 µg/mL) | 5.4 µM (≈ 8.03 µg/mL) | 10.8 µM (≈ 16.1 µg/mL) | ≥ 43.2 µM | 5.4 µM (≈ 8.03 µg/mL) | 0.7 µM (≈ 1.04 µg/mL) | 0.7 µM (≈ 1.04 µg/mL) |  |

— DBAASP
